Experiment [1] relates to ykt6. Briefly: Ykt6 membrane shift analysis under lysosomal stress. In kind it is cell-based, human. Here is the method: (§1) FIGS. 3A, 3B, 3C, 3D, 3E, 3F, 3G, 3H, 3I, 3J, and 3K. Ykt6 is activated in response to lysosomal stress. 3A) Ykt6 membrane shift analysis in bafA1 (200 nM, 2 hrs) or NH4Cl (1M, 12 hrs) treated iPSn (d60). CBB, coomassie brilliant blue, (BafA1 and NH4Cl are indicated, n=7-10). 3B) Co-IP of GFP-ykt6 and bet1 in control iPSn (d60) treated with bafA1 (n=3). 3C) Ykt6 and GM130 immunofluorescence analysis of bafA1-treated H4 cells (n=9). Scale bars=10 um. 3D) Ykt6 membrane shift analysis in CBE-treated SH-SY5Y cells (50 μM, 2d, n=3). 3E) Co-IP of GFP-ykt6, bet1 and STX5 in CBE-treated SHSY5Y cells (n=5). 3F) Ykt6 membrane shift analysis in control or Gaucher disease (GD) iPSn (d100). a-Syn was knocked-out (SNCA KO) in GD lines by CRISPR/Cas9. Two exposures are included to better visualize cyt and mem ykt6 (n=4). 3G) Ykt6 membrane shift analysis in lenti-infected SH-SY5Y cells (moi3, dpi 10) (n=3). C, cytosolic; N, nuclear. 3H) GCase maturation was assessed by endo H digest in lenti-infected SH-SY5Y cells. Empty vector (vect), scrambled (scrb). 3I) Control iPSn were infected as in 3H and analyzed for GCase maturation (n=3). 3J) Live cell GCase activity in lenti-infected iPSn (n=4). 3K) Lysosomal mass measurement in control iPSn (n=4). Values are the mean+/−SEM, *p<0.05.
FIGS. 12A, 12B, 12C, 12D, 12E, and 12F. The effects of ykt6 knock-down on the lysosomal system and characterization of GD-SNCA KO iPSCs. […] 12B) Protein secretion was measured by radioactive pulse-chase from the same culture wells that correspond to proteolysis data of FIG. 2H. 12C) Control iPSn were treated with 50 mM sucrose for 7 days followed by membrane shift analysis of ykt6. 12D) Control iPSn were infected with scrambled (S) or ykt6 shRNA (KD) and treated with or without sucrose as done in panel B. LAMP1 levels were analyzed by western blot. GAPDH is a loading control (n=4). 12E) Cultures were treated as described in panel C, and analyzed for GCase maturation by western blot analysis (n=4). For all quantifications, values are the mean+/−SEM, *p<0.05. 12F) Analysis of off-target edits by CRISPR/Cas9 in SNCA knock out (KO) Gaucher disease iPSCs. The targeting strategy has been previously published (Zunke et al., 2018). Genomic sequences showing the closest homology to SNCA were analyzed for mis-matched mutations by T7 digestion, and compared to the parental GD line. PCR amplicons were analyzed by agarose gel electrophoresis stained with ethidium bromide. For all quantifications, values are the mean+/−SEM, *p<0.05. Student's T-test was used in panel 12A, while ANOVA with Tukey's post-hoc test was used in panels 12D and 12E.
Separation of lysates into cytosol and membrane fractions. […]

The test system of experiment [2] is ykt6 SNARE complexes. The experiment is described as follows: Co-IP of GFP-ykt6 SNARE complexes under lysosomal stress. The experiment is classed as cell-based, human. The method, then: as §1, with “Empty vector (vect), scrambled (scrb).” left out, “3J) Live cell GCase activity in lenti-infected iPSn (n=4). 3K) Lysosomal mass measurement in control iPSn (n=4). Values are the mean+/−SEM, *p<0.05.” left out
To co-IP ykt6 SNARE assemblies, approximately 106-107 cells expressing GFP-tagged YKT6, were harvested in 1 ml of PBS, scraped off the plate and transferred to centrifuge tubes. […] Eluates were analyzed by western blot as described below. The samples were not analyzed in a blinded manner.

Experiment [3] addresses T1, ykt6 (Homo sapiens, UniProt O15498).
T1 construct: expressed in transfected cells
T1 sequence (O15498 1-198): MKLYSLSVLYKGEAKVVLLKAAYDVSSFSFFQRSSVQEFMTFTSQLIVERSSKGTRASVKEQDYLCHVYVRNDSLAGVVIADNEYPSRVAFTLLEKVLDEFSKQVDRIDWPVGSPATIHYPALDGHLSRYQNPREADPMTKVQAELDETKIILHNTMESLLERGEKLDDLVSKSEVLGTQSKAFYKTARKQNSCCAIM
Briefly: GFP-ykt6 / GM130 colocalization in Hela cells. In kind it is cell-based. To be noted: Hela cells stably expressing GFP-ykt6; 2 days, various concentrations. The method, then:
FIG. 19. […] A) Hela cells stably expressing GFP-ykt6 (green) were treated with #20 for 2 days at various concentrations, fixed, stained with Golgi marker GM130 (red), and colocalization was quantified by Pearson's correlation. Each plot represents an individual cell, from 3 culture wells. LNK-754 was used at 10 nM. B) Stable transfected Hela cells were incubated as in A followed by biochemical fractionation/western blot to detect cytosolic (cyt) or membrane (mem) ykt6. The assay was repeated 3 times, representative blot shown.
We tested the activity of Compound #20 ((3R)-1-[(1-{[1-(4,5-dimethylthiophene-2-carbonyl)piperidin-4-yl]methyl}-1H-1,2,3-triazol-4-yl)methyl]pyrrolidin-3-amine) regarding activation of ykt6 in Hela cells. (See FIG. 19). Hela cells stably expressing GFP-ykt6 were treated with Compound #20 for 2 days at various concentrations, fixed, stained with Golgi marker GM130, and colocalization was quantified by Pearson's correlation.

Experiment [4] has as its target T2, ykt6 SNARE binding (STX5) (Homo sapiens, UniProt O15498).
T2 construct: expressed in transfected cells
T2 sequence (O15498 1-195 limits assumed): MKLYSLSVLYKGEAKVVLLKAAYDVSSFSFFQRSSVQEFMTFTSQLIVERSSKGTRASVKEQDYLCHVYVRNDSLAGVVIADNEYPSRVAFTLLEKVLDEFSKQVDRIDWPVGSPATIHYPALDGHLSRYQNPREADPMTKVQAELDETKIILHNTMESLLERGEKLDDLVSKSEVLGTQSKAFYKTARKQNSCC
Briefly: Co-IP of GFP-ykt6 and STX5 in Hela cells. Particulars: Hela cells stably expressing GFP-ykt6; 2 days. The experiment is classed as cell-based.

Each structure is given as a SMILES string. Entries after “also recorded” stand apart in the source; their conditions may differ.

Consider `Cl.N` [NH4Cl], for which, in experiment [1] (healthy control iPSn (d60), 1M, 12 hrs), the ykt6 cytosol/membrane distribution result was “caused a shift of ykt6 from the cytosol into membrane fractions”.

Regarding `OC[C@H]1O[C@@](CO)(O[C@H]2O[C@H](CO)[C@@H](O)[C@H](O)[C@H]2O)[C@@H](O)[C@@H]1O` [sucrose], the ykt6 cytosol/membrane distribution entry in experiment [1] (control iPSn, 50 mM, 7 days) is recorded as “caused ykt6 to shift into membranes”.

Regarding `CO/C1=C\C(C)=C\[C@@H](C)[C@@H](O)[C@@H](C)C/C(C)=C/C=C/[C@H](OC)[C@@H]([C@@H](C)[C@@H](O)[C@H](C)[C@@]2(O)C[C@@H](O)[C@H](C)[C@@H](C(C)C)O2)OC1=O` [bafilomycin A1], the “assembly of ykt6 ER-Golgi SNARE complexes (co-IP GFP-ykt6 and bet1)” value in experiment [2] (control iPSn (d60)) was “promoted the assembly of ykt6 ER-Golgi SNARE complexes”. The ykt6 cytosol/membrane distribution entry in experiment [1] (healthy control iPSn (d60), 200 nM, 2 hrs) is reported as “caused a shift of ykt6 from the cytosol into membrane fractions”.

For the compound `Cc1cc(C(=O)N2CCC(Cn3cc(CN4CC[C@@H](N)C4)nn3)CC2)sc1C` [Compound #20, (3R)-1-[(1-{[1-(4,5-dimethylthiophene-2-carbonyl)piperidin-4-yl]methyl}-1H-1,2,3-triazol-4-yl)methyl]pyrrolidin-3-amine], the “ykt6 activity (GFP-ykt6 colocalization with GM130, Pearson's correlation)” value in experiment [3] is recorded as “can activate ykt6; also recorded: increases ykt6 activity”. For the same compound, in experiment [4], the “SNARE binding (STX5 co-IP)” value was “increases SNARE binding”.

With `O[C@H]1[C@H](O)[C@@H](O)[C@@H]2O[C@@H]2[C@@H]1O` [CBE], the “ykt6 SNARE complexes (co-IP GFP-ykt6, bet1 and STX5)” value in experiment [2] (SHSY5Y cells) is listed as “increased ykt6 SNARE complexes”. Further, the ykt6 cytosol/membrane distribution result in experiment [1] (SH-SY5Y cells, 50 μM, 2d) was “caused ykt6 to shift into membranes”.

The values above are taken from US12226410B2, “Methods for enhancing cellular clearance of pathological molecules via activation of the cellular protein ykt6” (NORTHWESTERN UNIVERSITY, priority 2019, dated 2025).
